# Results published in ChEMBL document CHEMBL4190187, “Discovery of pyrazolopyrimidine derivatives as novel inhibitors of ataxia telangiectasia and rad3 related protein (ATR)” (Bioorg Med Chem Lett, 2017).
# Columns and labels:
# [1] = biological target: Aurora kinase B (Homo sapiens) (UniProt Q96GD4); experiment: Inhibition of recombinant full-length human Aurora-B at 1 uM using AKRRRLSSLRA as substrate after 40 mins in presence of [gamma-33P]ATP by scintillation counting method
# [2] = biological target: Casein kinase I isoform gamma-2 (Homo sapiens) (UniProt P78368); experiment: Inhibition of recombinant human CK1gamma2 (18 to end residues) at 1 uM using KRRRALS(p)VASLPGL s substrate after 40 mins in presence of [gamma-33P]ATP by scintillation counting method
# Casein kinase I isoform gamma-2 (Homo sapiens), sequence (P78368 whole entry, looked up, canonical isoform): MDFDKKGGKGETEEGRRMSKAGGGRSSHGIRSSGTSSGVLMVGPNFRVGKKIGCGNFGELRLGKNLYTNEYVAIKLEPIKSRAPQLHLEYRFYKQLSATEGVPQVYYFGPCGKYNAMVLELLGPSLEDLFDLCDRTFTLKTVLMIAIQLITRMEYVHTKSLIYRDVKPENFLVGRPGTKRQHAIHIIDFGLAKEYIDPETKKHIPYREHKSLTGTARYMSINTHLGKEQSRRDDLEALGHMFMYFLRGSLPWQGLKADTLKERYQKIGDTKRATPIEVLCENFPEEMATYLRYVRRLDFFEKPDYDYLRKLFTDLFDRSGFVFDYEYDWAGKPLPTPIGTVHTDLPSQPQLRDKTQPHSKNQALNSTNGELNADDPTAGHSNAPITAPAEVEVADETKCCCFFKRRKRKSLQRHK
# [3] = biological target: Dual specificity protein kinase CLK4 (Homo sapiens) (UniProt Q9HAZ1); experiment: Inhibition of recombinant human CLK4 (128 to end residues) at 1 uM using YRRAAVPPSPSLSRHSSPHQS(p)EDEEE as substrate after 40 mins in presence of [gamma-33P]ATP by scintillation counting method
# Dual specificity protein kinase CLK4 (Homo sapiens), sequence (Q9HAZ1 whole entry, looked up): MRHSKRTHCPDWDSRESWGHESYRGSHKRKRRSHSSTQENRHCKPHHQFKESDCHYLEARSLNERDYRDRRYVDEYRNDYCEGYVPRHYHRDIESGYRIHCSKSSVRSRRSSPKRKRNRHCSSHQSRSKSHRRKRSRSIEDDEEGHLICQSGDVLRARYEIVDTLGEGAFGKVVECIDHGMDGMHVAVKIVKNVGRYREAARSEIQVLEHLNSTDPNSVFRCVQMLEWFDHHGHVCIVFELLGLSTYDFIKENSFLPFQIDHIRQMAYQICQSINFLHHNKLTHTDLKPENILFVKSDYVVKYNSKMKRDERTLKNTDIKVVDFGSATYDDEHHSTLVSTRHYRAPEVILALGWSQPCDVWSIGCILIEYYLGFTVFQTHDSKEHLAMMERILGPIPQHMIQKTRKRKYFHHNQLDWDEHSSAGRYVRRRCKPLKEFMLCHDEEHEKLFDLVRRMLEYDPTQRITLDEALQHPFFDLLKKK
# [4] = biological target: Serine/threonine-protein kinase 17B (Homo sapiens) (UniProt O94768); experiment: Inhibition of recombinant full-length human DRAK2 at 1 uM using KKRPQRRYSNVF as substrate after 120 mins in presence of [gamma-33P]ATP by scintillation counting method
# [5] = biological target: Dual specificity tyrosine-phosphorylation-regulated kinase 1A (Homo sapiens) (UniProt Q13627); experiment: Inhibition of recombinant full-length human DYRK1A at 1 uM using RRRFRPASPLRGPPK as substrate after 40 mins in presence of [gamma-33P]ATP by scintillation counting method
# [6] = biological target: Tyrosine-protein kinase Fer (Homo sapiens) (UniProt P16591); experiment: Inhibition of recombinant human FER (541 to end residues) at 1 uM using KKKSPGEYVNIEFG as substrate after 40 mins in presence of [gamma-33P]ATP by scintillation counting method
# Tyrosine-protein kinase Fer (Homo sapiens), sequence (P16591 whole entry, looked up): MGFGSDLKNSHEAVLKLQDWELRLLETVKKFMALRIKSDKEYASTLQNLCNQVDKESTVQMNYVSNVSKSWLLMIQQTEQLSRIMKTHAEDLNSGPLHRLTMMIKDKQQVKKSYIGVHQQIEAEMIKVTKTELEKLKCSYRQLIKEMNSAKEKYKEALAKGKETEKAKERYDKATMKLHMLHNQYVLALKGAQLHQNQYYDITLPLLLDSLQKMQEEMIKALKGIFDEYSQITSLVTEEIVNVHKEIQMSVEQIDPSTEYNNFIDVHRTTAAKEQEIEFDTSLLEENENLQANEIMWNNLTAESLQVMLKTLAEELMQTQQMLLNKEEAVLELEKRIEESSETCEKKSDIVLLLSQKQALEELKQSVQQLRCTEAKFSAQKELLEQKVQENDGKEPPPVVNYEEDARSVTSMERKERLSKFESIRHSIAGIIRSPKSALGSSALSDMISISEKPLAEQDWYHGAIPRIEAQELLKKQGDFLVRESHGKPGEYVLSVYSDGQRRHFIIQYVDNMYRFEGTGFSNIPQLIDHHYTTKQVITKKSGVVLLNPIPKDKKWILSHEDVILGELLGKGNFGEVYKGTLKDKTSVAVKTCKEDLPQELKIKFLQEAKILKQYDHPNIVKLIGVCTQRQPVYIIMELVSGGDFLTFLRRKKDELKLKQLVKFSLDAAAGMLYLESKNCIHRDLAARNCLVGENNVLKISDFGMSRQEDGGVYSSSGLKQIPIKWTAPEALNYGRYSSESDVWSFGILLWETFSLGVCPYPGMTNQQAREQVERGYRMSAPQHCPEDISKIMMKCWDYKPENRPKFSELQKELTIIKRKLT
# [7] = biological target: Tyrosine-protein kinase Fes/Fps (Homo sapiens) (UniProt P07332); experiment: Inhibition of recombinant human FES (2 to end residues) at 1 uM using poly(Glu,Tyr) 4:1 as substrate after 40 mins in presence of [gamma-33P]ATP by scintillation counting method
# [8] = biological target: Serine/threonine-protein kinase haspin (Homo sapiens) (UniProt Q8TF76); experiment: Inhibition of recombinant human Haspin (471 to end residues) at 1 uM using RARTLSFAEPG as substrate after 40 mins in presence of [gamma-33P]ATP by scintillation counting method
# [9] = biological target: Serine/threonine-protein kinase ICK (Homo sapiens) (UniProt Q9UPZ9); experiment: Inhibition of recombinant human ICK (1 to 312 residues) at 1 uM using RRRFRPASPLRGPPK as substrate after 120 mins in presence of [gamma-33P]ATP by scintillation counting method
# Serine/threonine-protein kinase ICK (Homo sapiens), sequence (Q9UPZ9 whole entry, the tested form may be a part): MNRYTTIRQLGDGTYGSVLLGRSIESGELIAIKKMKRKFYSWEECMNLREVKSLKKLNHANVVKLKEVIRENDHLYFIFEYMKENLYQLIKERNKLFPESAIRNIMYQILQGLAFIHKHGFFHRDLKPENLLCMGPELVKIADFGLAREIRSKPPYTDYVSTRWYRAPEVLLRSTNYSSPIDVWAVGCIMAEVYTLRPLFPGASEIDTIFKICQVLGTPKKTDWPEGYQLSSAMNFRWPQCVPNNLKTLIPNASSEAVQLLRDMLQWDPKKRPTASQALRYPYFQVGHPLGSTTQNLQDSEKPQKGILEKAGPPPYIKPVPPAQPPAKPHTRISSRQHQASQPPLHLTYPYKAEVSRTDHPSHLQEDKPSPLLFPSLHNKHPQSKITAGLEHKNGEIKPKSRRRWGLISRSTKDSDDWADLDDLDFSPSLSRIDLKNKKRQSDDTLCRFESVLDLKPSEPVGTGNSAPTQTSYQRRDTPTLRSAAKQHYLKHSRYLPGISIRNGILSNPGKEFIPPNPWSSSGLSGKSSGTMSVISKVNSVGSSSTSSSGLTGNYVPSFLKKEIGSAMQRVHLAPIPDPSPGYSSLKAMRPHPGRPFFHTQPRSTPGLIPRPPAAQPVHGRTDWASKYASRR
# [10] = biological target: LIM domain kinase 1 (Homo sapiens) (UniProt P53667); experiment: Inhibition of recombinant human LIMK1 (285 to 638 residues) at 1 uM using cofilin as substrate after 40 mins in presence of [gamma-33P]ATP by scintillation counting method
# LIM domain kinase 1 (Homo sapiens), sequence (P53667 whole entry, looked up, the tested form may be a part): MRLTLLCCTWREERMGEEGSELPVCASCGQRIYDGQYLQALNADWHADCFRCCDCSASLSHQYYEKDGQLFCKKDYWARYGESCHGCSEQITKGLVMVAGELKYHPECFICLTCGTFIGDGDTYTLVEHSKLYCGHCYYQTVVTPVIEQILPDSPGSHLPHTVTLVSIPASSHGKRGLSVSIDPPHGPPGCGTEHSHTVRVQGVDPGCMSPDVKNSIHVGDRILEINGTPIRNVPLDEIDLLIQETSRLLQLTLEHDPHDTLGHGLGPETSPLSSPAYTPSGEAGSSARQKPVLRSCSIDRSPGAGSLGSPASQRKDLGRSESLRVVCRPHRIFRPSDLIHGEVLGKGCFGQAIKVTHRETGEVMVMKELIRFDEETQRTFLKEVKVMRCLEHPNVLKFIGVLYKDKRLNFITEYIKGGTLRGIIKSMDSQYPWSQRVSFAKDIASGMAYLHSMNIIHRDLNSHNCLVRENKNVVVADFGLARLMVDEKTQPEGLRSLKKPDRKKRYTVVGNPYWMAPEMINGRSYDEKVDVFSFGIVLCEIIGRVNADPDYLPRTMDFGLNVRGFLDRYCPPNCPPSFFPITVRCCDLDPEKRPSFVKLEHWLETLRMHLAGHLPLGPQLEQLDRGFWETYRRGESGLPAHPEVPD
# [11] = biological target: Serine/threonine-protein kinase 10 (Homo sapiens) (UniProt O94804); experiment: Inhibition of recombinant human LOK (1 to 348 residues) at 1 uM using RLGRDKYKTLRQIRQ as substrate after 40 mins in presence of [gamma-33P]ATP by scintillation counting method
# [12] = biological target: Mitogen-activated protein kinase kinase kinase kinase 5 (Homo sapiens) (UniProt Q9Y4K4); experiment: Inhibition of recombinant full-length human MAP4K5 at 1 uM using myelin basic protein as substrate after 40 mins in presence of [gamma-33P]ATP by scintillation counting method
# [13] = biological target: Myosin light chain kinase, smooth muscle (Homo sapiens) (UniProt Q15746); experiment: Inhibition of recombinant human MLCK (1425 to 1771 residues) at 1 uM using […] after 40 mins in presence of [gamma-33P]ATP by scintillation counting method
# [14] = biological target: Serine/threonine-protein kinase MRCK alpha (Homo sapiens) (UniProt Q5VT25); experiment: Inhibition of recombinant human MRCKalpha (1 to 473 residues) at 1 uM using KKRNRTLTV as substrate after 40 mins in presence of [gamma-33P]ATP by scintillation counting method
# [15] = biological target: Myosin light chain kinase 2, skeletal/cardiac muscle (Homo sapiens) (UniProt Q9H1R3); experiment: Inhibition of full-length recombinant human MYLK2 at 1 uM using KKLNRTLSFAEPG as substrate after 40 mins in presence of [gamma-33P]ATP by scintillation counting method
# Myosin light chain kinase 2, skeletal/cardiac muscle (Homo sapiens), sequence (Q9H1R3 whole entry, the tested form may be a part): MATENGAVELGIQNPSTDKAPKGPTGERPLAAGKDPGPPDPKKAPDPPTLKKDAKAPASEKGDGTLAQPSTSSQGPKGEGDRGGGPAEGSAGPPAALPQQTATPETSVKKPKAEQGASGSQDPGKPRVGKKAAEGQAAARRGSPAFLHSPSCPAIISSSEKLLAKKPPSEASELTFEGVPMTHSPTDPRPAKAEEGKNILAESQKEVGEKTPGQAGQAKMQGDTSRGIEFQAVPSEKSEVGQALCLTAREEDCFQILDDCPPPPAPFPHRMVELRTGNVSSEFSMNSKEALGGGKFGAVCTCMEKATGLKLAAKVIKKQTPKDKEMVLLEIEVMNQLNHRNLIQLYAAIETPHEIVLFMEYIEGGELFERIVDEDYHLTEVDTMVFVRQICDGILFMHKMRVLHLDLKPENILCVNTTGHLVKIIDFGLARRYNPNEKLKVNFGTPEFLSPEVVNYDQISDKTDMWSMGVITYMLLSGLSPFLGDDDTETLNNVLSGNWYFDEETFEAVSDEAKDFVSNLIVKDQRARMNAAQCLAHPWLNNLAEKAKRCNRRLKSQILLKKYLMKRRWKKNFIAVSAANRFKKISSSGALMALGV
# [16] = biological target: Serine/threonine-protein kinase Nek1 (Homo sapiens) (UniProt Q96PY6); experiment: Inhibition of recombinant human NEK1 (1 to 505 residues) at 1 uM using RLGRDKYKTLRQIRQ as substrate after 40 mins in presence of [gamma-33P]ATP by scintillation counting method
# [17] = biological target: Eukaryotic translation initiation factor 2-alpha kinase 3 (Homo sapiens) (UniProt Q9NZJ5); experiment: Inhibition of recombinant human PEK (536 to end residues) at 1 uM using RSRSRSRSRSRSRSR as substrate after 40 mins in presence of [gamma-33P]ATP by scintillation counting method
# [18] = biological target: Phosphatidylinositol 4-phosphate 3-kinase C2 domain-containing subunit alpha (Homo sapiens) (UniProt O00443); experiment: Inhibition of recombinant human PI3KC2alpha (299 to end residues) at 1 uM phosphatidylinositol/phosphatidylserine as substrate after 40 mins in presence of [gamma-33P]ATP by scintillation counting method
# [19] = biological target: cAMP-dependent protein kinase catalytic subunit alpha (Homo sapiens) (UniProt P17612); experiment: Inhibition of recombinant full-length human PRKACA at 1 uM using LRRASLG (Kemptide) as substrate after 40 mins in presence of [gamma-33P]ATP by scintillation counting method
# [20] = biological target: Protein-tyrosine kinase 2-beta (Homo sapiens) (UniProt Q14289); experiment: Inhibition of recombinant full-length human Pyk2 at 1 uM using poly(Glu,Tyr) 4:1 as substrate after 40 mins in presence of [gamma-33P]ATP by scintillation counting method
# [21] = biological target: Serine/threonine-protein kinase 32B (Homo sapiens) (UniProt Q9NY57); experiment: Inhibition of recombinant full-length human STK32B at 1 uM using casein as substrate after 120 mins in presence of [gamma-33P]ATP by scintillation counting method
# [22] = biological target: SNF-related serine/threonine-protein kinase (Homo sapiens) (UniProt Q9NRH2); experiment: Inhibition of recombinant human SNRK (1 to 505 residues) at 1 uM using KKLRRTLSFAEPG as substrate after 40 mins in presence of [gamma-33P]ATP by scintillation counting method
# SNF-related serine/threonine-protein kinase (Homo sapiens), sequence (Q9NRH2 whole entry, the tested form may be a part): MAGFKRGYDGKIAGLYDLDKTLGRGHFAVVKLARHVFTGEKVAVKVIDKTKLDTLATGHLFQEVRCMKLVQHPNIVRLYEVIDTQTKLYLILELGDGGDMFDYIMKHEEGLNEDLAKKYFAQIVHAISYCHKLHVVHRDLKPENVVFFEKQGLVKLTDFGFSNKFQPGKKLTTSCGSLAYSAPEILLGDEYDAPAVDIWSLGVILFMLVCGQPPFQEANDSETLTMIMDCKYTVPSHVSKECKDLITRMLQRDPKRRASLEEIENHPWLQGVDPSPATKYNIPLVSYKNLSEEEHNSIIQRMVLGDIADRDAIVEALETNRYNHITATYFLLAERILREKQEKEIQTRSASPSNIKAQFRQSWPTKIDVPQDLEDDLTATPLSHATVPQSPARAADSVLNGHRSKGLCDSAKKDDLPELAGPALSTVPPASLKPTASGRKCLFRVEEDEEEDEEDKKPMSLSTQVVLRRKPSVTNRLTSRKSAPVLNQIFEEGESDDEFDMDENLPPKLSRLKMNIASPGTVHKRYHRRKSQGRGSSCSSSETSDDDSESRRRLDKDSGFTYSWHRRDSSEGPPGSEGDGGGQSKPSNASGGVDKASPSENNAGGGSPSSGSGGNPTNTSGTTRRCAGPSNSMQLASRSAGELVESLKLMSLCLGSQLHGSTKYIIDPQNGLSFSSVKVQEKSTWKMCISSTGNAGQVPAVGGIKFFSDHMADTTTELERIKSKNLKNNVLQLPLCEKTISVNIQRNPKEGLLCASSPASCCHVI
# [23] = biological target: Tyrosine-protein kinase Yes (Homo sapiens) (UniProt P07947); experiment: Inhibition of recombinant full-length human Yes at 1 uM using poly(Glu,Tyr) 4:1 as substrate after 40 mins in presence of [gamma-33P]ATP by scintillation counting method
# [24] = biological target: Serine/threonine-protein kinase ATR (Homo sapiens, UniProt Q13535); experiment: Inhibition of recombinant full-length human ATR at 10 uM using GST-cMyc-p53 as substrate after 40 mins in presence of [gamma-33P]ATP by scintillation counting method
# Aurora kinase B (Homo sapiens), sequence (Q96GD4 whole entry, canonical isoform): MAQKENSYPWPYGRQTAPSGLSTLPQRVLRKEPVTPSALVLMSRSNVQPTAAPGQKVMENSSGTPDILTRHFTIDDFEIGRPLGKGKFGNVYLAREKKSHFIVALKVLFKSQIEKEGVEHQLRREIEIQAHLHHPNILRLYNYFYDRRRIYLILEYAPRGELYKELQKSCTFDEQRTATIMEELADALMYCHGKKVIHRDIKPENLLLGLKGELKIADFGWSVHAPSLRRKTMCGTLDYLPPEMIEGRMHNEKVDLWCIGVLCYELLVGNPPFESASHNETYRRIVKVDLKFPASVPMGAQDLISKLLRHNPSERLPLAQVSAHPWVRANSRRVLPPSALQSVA
smiles,measurement,setting,value
CS(=O)(=O)c1ccc(-n2nc(-c3cnc4[nH]ccc4c3)c3c(N)ncnc32)cc1,inhibition,[1],7%
same,inhibition,[2],18%
same,inhibition,[3],11%
same,inhibition,[4],7%
same,inhibition,[5],-6%
same,inhibition,[6],1%
same,inhibition,[7],-5%
same,inhibition,[8],-9%
same,inhibition,[9],-8%
same,inhibition,[10],24%
same,inhibition,[11],-5%
same,inhibition,[12],1%
same,inhibition,[13],4%
same,inhibition,[14],-3%
same,inhibition,[15],18%
same,inhibition,[16],-4%
same,inhibition,[17],13%
same,inhibition,[18],23%
same,inhibition,[19],4%
same,inhibition,[20],25%
same,inhibition,[21],7%
same,inhibition,[22],-6%
same,inhibition,[23],92%
same,inhibition,[24],106%
